The values that follow come from US12091425B2 (AMGEN INC., priority 2016, dated 2024).

The target in assay [1] is T1, Mcl-1/Bim interaction, recombinant human Mcl-1 (171-327) (Homo sapiens, UniProt Q07820).
T1 construct: made in house
Briefly: Cell free Mcl-1: Bim Affinity Assay (Mcl-1 HTRF). It is filed as binding. In a few lines: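 Read-out is time-resolved FRET after overnight incubation, using a biotin-labelled peptide from human Bim (51-76) as the binding partner; IC50 was derived from competition curves.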
Background: Time-resolved FRET reads energy transfer from a long-lived donor to a nearby acceptor.

For assay [2], the system named is OPM-2 human multiple myeloma cell line. Put plainly: Cell Viability Assay (OPM-2 10 FBS). The assay is classed as cell-based. Conditions: OPM-2 cells, CellTiter-Glo. In a few lines:
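OPM-2 myeloma cells, 3000/well in medium with 10% FBS, exposed to serially diluted compounds for 16 h at 37° C./5% CO2. Viability read by CellTiter-Glo luminescence; IC50 from 4-parameter logistic fit.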
On the technique in general: In ATP-based viability assays light output follows the ATP content of the culture.

The mark [3] stands for this setting: TR-FRET, 0.1 nM Mcl-1 (171-327), 0.05 nM biotin-Bim (51-76).
Where [4] appears, read: Homo sapiens, OPM-2, 16 h, 16 h.
Where [5] appears, read: Homo sapiens, OPM-2, 16 h, 16 h incubation.
Where [6] appears, read: cell free Mcl-1:Bim TR-FRET, recombinant human Mcl-1 (171-327).

A word on the IC50: it is the concentration that inhibits the measured activity by half.

T1 sequence (Q07820 171-327): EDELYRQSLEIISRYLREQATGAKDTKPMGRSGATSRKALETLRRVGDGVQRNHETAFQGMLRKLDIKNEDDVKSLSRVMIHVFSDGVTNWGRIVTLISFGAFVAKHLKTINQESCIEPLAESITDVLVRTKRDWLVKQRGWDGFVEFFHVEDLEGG

As to `CC[C@@H](O[C@H]1/C=C/C[C@H](C)[C@@H](C)S(=O)(=O)NC(=O)c2ccc3c(c2)N(C[C@@H]2CC[C@H]21)C[C@@]1(CCCc2cc(Cl)ccc21)CO3)C(=O)N(C)C` (single isomer, unassigned) [Example 431], the half-inhibitory concentration (IC50) in assay [1] (setting [3]) amounted to 0.512 nM; in assay [2] (16 h), 140 nM.
`COCCOCC[C@@H]1[C@@H](C)C/C=C/[C@H](O)[C@@H]2CC[C@H]2CN2C[C@@]3(CCCc4cc(Cl)ccc43)COc3ccc(cc32)C(=O)NS1(=O)=O` (single isomer, unassigned) [Example 399]: the IC50 turned out to be 0.239 nM in assay [1] (setting [3]) and 165 nM in assay [2] (16 h).
For the compound `C[C@@H]1[C@@H](C)C/C=C/[C@H](OCC(=O)N2CC(O)C2)[C@@H]2CC[C@H]2CN2C[C@@]3(CCCc4cc(Cl)ccc43)COc3ccc(cc32)C(=O)NS1(=O)=O` [Example 304, (1S,3′R,6′R,7′S,8′E,11′S,12′R)-6-chloro-7′-(2-(3-hydroxy-1-azetidinyl)-2-oxoethoxy)-11′,12′-dimethyl-3,4-dihydro-2H,15′H-spiro[naphthalene-1,22′-[20]oxa[13]thia[1,14]diazatetracyclo[14.7.2.0^3,6.0^19,24]pentacosa [8,16,18,24]tetraen]-15′-one 13′,13′-dioxide], the IC50 in assay [1] (setting [3]) turned out to be 0.151 nM; in assay [2] (setting [4]), 2280 nM.
With `COC[C@H]1C/C=C/[C@H](O)[C@@H]2CC[C@H]2CN2C[C@@]3(CCCc4cc(Cl)ccc43)COc3ccc(cc32)C(=O)NS(=O)(=O)C1` [Example 1087, (1S,3′R,6′R,7′S,8′E,11′R)-6-chloro-7′-hydroxy-11′-(methoxymethyl)-3,4-dihydro-2H,15′H-spiro [naphthalene-1,22′-[20]oxa[13]thia[1,14]diazatetracyclo[14.7.2.0^3,6.0^19,24]pentacosa [8,16,18,24]tetraen]-15′-one 13′,13′-dioxide], the IC50 in assay [1] (setting [3]) turned out to be 0.493 nM; in assay [2] (setting [5]), 692 nM.
Consider `C[C@@H]1[C@@H](C)C/C=C/[C@H](OCCS(N)(=O)=O)[C@@H]2CC[C@H]2CN2C[C@@]3(CCCc4cc(Cl)ccc43)COc3ccc(cc32)C(=O)NS1(=O)=O` [Example 15, 2-(((1S,3′R,6′R,7′S,8′E,11′S,12′R)-6-chloro-11′,12′-dimethyl-13′,13′-dioxido-15′-oxo-3,4-dihydro-2H-spiro[naphthalene-1,22′-[20]oxa[13]thia[1,14]diazatetracyclo[14.7.2.0^3,6.0^19,24]pentacosa[8,16,18,24]tetraen]-7′-yl)oxy)ethanesulfonamide], for which the IC50 in assay [1] (setting [3]) is 0.393 nM; in assay [2] (setting [4]) it was 870 nM.
As to `CCC1CCC=CC(OC(C)C(=O)OC)C2CCC2CN2CC3(CCCc4cc(Cl)ccc43)COc3ccc(cc32)C(=O)NS1(=O)=O` (mixture of isomers) [Example 1004], the half-inhibitory concentration (IC50) in assay [1] (setting [3]) turned out to be 0.635 nM; in assay [2] (16 h incubation), 23.6 nM.
For the compound `CC1CC=CC(O)C2CCC2CN2CC3(CCCc4cc(Cl)ccc43)COc3ccc(cc32)C(=O)NS(=O)(=O)C1` (single isomer, unassigned) [Example 231], the IC50 in assay [1] (setting [3]) amounted to 45.2 nM; in assay [2] (setting [4]), 23100 nM.
For `C[C@@H]1[C@@H](C)C/C=C/[C@H](OCCN2CCC(F)(F)CC2)[C@@H]2CC[C@H]2CN2C[C@@]3(CCCc4cc(Cl)ccc43)COc3ccc(cc32)C(=O)NS1(=O)=O` [Example 10, (1S,3′R,6′R,7′S,8′E,11′S,12′R)-6-chloro-7′-(2-(4,4-difluoro-1-piperidinyl)ethoxy)-11′,12′-dimethyl-3,4-dihydro-2H,15′H-spiro[naphthalene-1,22′-[20]oxa[13]thia[1,14]diazatetracyclo[14.7.2.0^3,6.0^19,24]pentacosa[8,16,18,24]tetraen]-15′-one-13,13′-dioxide], the IC50 in assay [1] (setting [3]) worked out at 2.97 nM; in assay [2] (setting [4]), 630 nM.
For `C[C@H]1C/C=C/[C@H](O)[C@@H]2CC[C@H]2CN2C[C@@]3(CCCc4cc(Cl)ccc43)COc3ccc(cc32)C(=O)NS(=O)(=O)N1C[C@@H]1CCCO1` (single isomer, unassigned) [Example 49], the half-maximal inhibitory concentration (IC50) in assay [1] (setting [3]) was 0.321 nM; in assay [2] (setting [4]), 444 nM.
For `C[C@H]1C/C=C/[C@H](O)[C@@H]2CC[C@H]2CN2C[C@@]3(CCCc4cc(Cl)ccc43)COc3ccc(cc32)C(=O)NS(=O)(=O)N1CC1CC1` [Example 28, (1S,3′R,6′R,7′S,8′E,11′S)-6-chloro-12′-(cyclopropylmethyl)-7′-hydroxy-11′-methyl-3,4-dihydro-2H,15′H-spiro[naphthalene-1,22′-[20]oxa[13]thia[1,12,14]triazatetracyclo[14.7.2.0^3,6.0^19,24]pentacosa[8,16,18,24]tetraen]-15′-one 13,13′-dioxide], the results for the IC50 in assay [1] (setting [3]) and in assay [2] (setting [4]) were 0.8 nM and 1700 nM, respectively.
As to `O=C1NS(=O)(=O)NCCC/C=C/[C@H](O)[C@@H]2CC[C@H]2CN2C[C@@]3(CCCc4cc(Cl)ccc43)COc3ccc1cc32` [Example 660, (1S,3′R,6′R,7′S,8′E)-6-chloro-7′-hydroxy-3,4-dihydro-2H,16′H-spiro[naphthalene-1,23′-[21]oxa[14]thia[1,13,15]triazatetracyclo[15.7.2.0^3,6.0^20,25]hexacosa[8,17,19,25]tetraen]-16′-one 14′,14′-dioxide], the IC50 is 0.376 nM in assay [1] (setting [6]) and 416 nM in assay [2] (setting [4]).
Turning to `CC1CC(C)C(C)S(=O)(=O)NC(=O)c2ccc3c(c2)N(CC2CCC2C(O)C1)CC1(CCCc2cc(Cl)ccc21)CO3` (single isomer, unassigned) [Example 259], the half-maximal inhibitory concentration (IC50) in assay [1] (setting [3]) is 44.4 nM; in assay [2] (setting [4]) it was 23000 nM.
In the case of `C[C@@H]1[C@@H](C)C/C=C/[C@H](OCCCl)[C@@H]2CC[C@H]2CN2C[C@@]3(CCCc4cc(Cl)ccc43)COc3ccc(cc32)C(=O)NS1(=O)=O` [Example 511, (1S,3′R,6′R,7′S,8′E,11′S,12′R)-6-chloro-7′-(2-chloroethoxy)-11′,12′-dimethyl-3,4-dihydro-2H,15′H-spiro[naphthalene-1,22′-[20]oxa[13]thia[1,14]diazatetracyclo[14.7.2.0^3,6.0^19,24]pentacosa [8,16,18,24]tetraen]-15′-one 13′,13′-dioxide], the IC50 in assay [1] (setting [6]) came to 1.5 nM; in assay [2] (setting [4]), 311 nM.
On to `C[C@@H]1[C@@H](C)C/C=C/[C@H](OCC(=O)N(C)C)[C@@H]2CC[C@H]2CN2C[C@@]3(CCCc4cc(Cl)ccc43)COc3ccc(cc32)C(=O)NS1(=O)=O` [Example 295, 2-(((1S,3′R,6′R,7′S,8′E,11′S,12′R)-6-chloro-11′,12′-dimethyl-13′,13′-dioxido-15′-oxo-3,4-dihydro-2H-spiro[naphthalene-1,22′-[20]oxa[13]thia[1,14]diazatetracyclo[14.7.2.0^3,6.0^19,24]pentacosa [8,16,18,24]tetraen]-7′-yl)oxy)-N,N-dimethylacetamide], for which the figures for the IC50 in assay [1] (setting [3]) and in assay [2] (setting [4]) were 0.19 nM and 151 nM, respectively.
The corresponding values for `O=C1NS(=O)(=O)CCC/C=C/[C@@H](OCCO)[C@@H]2CC[C@H]2CN2C[C@@]3(CCCc4cc(Cl)ccc43)COc3ccc1cc32` [Example 220, (1S,3′R,6′R,7′R,8′E)-6-chloro-7′-(2-hydroxyethoxy)-3,4-dihydro-2H,15′H-spiro[naphthalene-1,22′-[20]oxa[13]thia[1,14]diazatetracyclo[14.7.2.0^3,6.0^19,24]pentacosa [8,16,18,24]tetraen]-15′-one 13′,13′-dioxide] are 1.99 nM and 2660 nM.
`CC(C)(O)CC1CCC=CC(O)C2CCC2CN2CC3(CCCc4cc(Cl)ccc43)COc3ccc(cc32)C(=O)NS1(=O)=O` (single isomer, unassigned) [Example 558]: the results for the concentration for half-maximal inhibition (IC50) in assay [1] (setting [6]) and in assay [2] (setting [4]) were 0.284 nM and 891 nM, respectively.
With “(1S,3′R,6′R,9′R)-6-chloro-9′-methyl-3,4-dihydro-2H,15′H-spiro[naphthalene-1,22′-[20]oxa[13]thia[1,14]diazatetracyclo[14.7.2.0^3,6.0^19,24]pentacosa [16,18,24]trien]-15′-one 13′,13′-dioxide and (1S,3′R,6′R,9′S)-6-chloro-9′-methyl-3,4-dihydro-2H,15′H-spiro[naphthalene-[20]oxa[13]thia[1,14]diazatetracyclo[14.7.2.0^3,6.0^19,24]pentacosa [16,18,24]trien]-15′-one 13′,13′-dioxide [Example 276]”, the figures for the 50% inhibitory concentration (IC50) in assay [1] (setting [3]) and in assay [2] (16 h) were 13.2 nM and 6410 nM, respectively.
On to `C[C@@H]1[C@@H](C)/C=C/C[C@H](OCCN2CCOCC2)[C@@H]2CC[C@H]2CN2C[C@@]3(CCCc4cc(Cl)ccc43)COc3ccc(cc32)C(=O)NS1(=O)=O` [Example 16, (1S,3′R,6′R,7′S,9′E,11′S,12′R)-6-chloro-11′,12′-dimethyl-7′-(2-(4-morpholinyl)ethoxy)-3,4-dihydro-2H,15′H-spiro[naphthalene-1,22′-[20]oxa[13]thia[1,14]diazatetracyclo[14.7.2.0^3,6.0^19,24]pentacosa [9,16,18,24]tetraen]-15′-one 13′,13′-dioxide], for which the 50% inhibitory concentration (IC50) worked out at 2.21 nM in assay [1] (setting [3]) and 3580 nM in assay [2] (Homo sapiens, 16 h).
Take `CC[C@@H]1CC/C=C/[C@H](OCC(=O)N2CCC2)[C@@H]2CC[C@H]2CN2C[C@@]3(CCCc4cc(Cl)ccc43)COc3ccc(cc32)C(=O)NS1(=O)=O` [Example 997, (1S,3′R,6′R,7′S,8′E,12′R)-7′-(2-(1-azetidinyl)-2-oxoethoxy)-6-chloro-12′-ethyl-3,4-dihydro-2H,15′H-spiro[naphthalene-1,22′-[20]oxa[13]thia[1,14]diazatetracyclo[14.7.2.0^3,6.0^19,24]pentacosa [8,16,18,24]tetraen]-15′-one 13′,13′-dioxide]: the half-inhibitory concentration (IC50) in assay [1] (setting [3]) turned out to be 0.336 nM; in assay [2] (setting [5]), 962 nM.
